{"source": "PubChem BioAssay AID743297", "about": "(The Scripps Research Institute Molecular Screening Center, 2014)", "target": "Tyrosyl-DNA phosphodiesterase 2 (Homo sapiens) (UniProt O95551)", "sequence (O95551 whole entry, looked up)": "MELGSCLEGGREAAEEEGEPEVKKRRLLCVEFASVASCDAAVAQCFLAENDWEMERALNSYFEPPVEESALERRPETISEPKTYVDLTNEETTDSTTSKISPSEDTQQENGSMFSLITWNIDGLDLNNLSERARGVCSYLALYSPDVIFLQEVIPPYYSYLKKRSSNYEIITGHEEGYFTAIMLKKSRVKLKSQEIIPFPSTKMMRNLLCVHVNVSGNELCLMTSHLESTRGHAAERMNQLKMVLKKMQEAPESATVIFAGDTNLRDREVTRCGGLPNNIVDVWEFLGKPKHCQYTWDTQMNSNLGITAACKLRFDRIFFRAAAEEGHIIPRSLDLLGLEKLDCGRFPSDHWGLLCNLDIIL", "experiment": "potency against TDP2 phosphodiesterase activity – biochemical, epi absorbance, IC50, dose response (AID 743297)", "conditions": "recombinant TDP2, T5PNP hydrolysis, absorbance 415 nm", "note": "Activity calls are given as the source filed them.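 How the source made its calls: active means IC50 against TDP2 at or below a set limit; inactive means IC50 above that limit.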", "data": [{"smiles": "C[c-]1[c-](C)[c-](C)[c-](C)[c-]1C.[Fe].c1cc2nccc(N3CCCC3)[c-]2c1", "note": "(stereo unspecified)", "values": [{"measurement": "IC50", "value": "inactive"}]}]}
